{"source": "patent US20180333379A1", "about": "(priority 2018, published 2018)", "key": {"alpha synuclein": {"target": "alpha synuclein (Homo sapiens, UniProt P37840)", "settings": "10 mM calcium chloride in PBS, 37° C., four weeks", "method": "Five hundred micrograms of alpha synuclein (rPeptide, LLC, Athens, Ga.) was dissolved in 400 microliters of 10 mM calcium chloride in PBS and incubated at 37° C. for four weeks."}, "[1]": {"target": "T1, β-2-microglobulin aggregates (Homo sapiens, UniProt P61769)", "T1 construct": "purchased Lee Biosolutions, Maryland Heights, Mo", "T1 sequence (P61769 21-119)": "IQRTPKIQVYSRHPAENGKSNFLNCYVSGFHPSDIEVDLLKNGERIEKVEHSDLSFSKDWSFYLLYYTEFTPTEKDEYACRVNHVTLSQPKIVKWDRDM", "assay": "Citrate treatment of β-2-microglobulin aggregates (thioflavin T fluorescence microscopy)", "format": "biochemical", "settings": "2 weeks, thioflavin T stain", "method": "(§1) In the following experiments, the concentration of thioflavin T was thirty micromolar in phosphate buffered saline (PBS), and the staining time was five minutes.\n(§2) In the following experiments, an […] observer interpreted fluorescence. Interpretation of microscopic fluorescence intensity may be subject to bias. Staining times and washes were controlled.\nOne milliliter of β-2-microglobulin (Lee Biosolutions, Maryland Heights, Mo.) at a concentration of 1 mg/0.5 ml were mixed with two milliliters of 10 mM calcium chloride in normal saline at 37° C. for three weeks, and a precipitate formed. […] The precipitate was aspirated and stained with 10 microliters of thioflavin T, washed twice with phosphate bufferd saline (PBS), and each sample was observed under an epifluorescent microscope with B2 filter (excitation filter, 450-490 nm; barrier filter, 520 nm). (Table 1)"}, "[2]": {"target": "T2, amyloid β peptide(1-40) aggregates (Homo sapiens, UniProt P05067)", "T2 construct": "amyloid β peptide(1-40) (Abcam, Cambridge, United Kingdom); purchased Abcam, Cambridge, United Kingdom", "T2 sequence (P05067 672-711 limits assumed)": "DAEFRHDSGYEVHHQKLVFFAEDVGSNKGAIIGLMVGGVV", "assay": "Citrate treatment of amyloid β peptide(1-40) aggregates (thioflavin T fluorescence microscopy)", "format": "biochemical", "settings": "48 hours, 37° C.", "method": "as §1, §2\nA precipitate formed and the sample was centrifuged at 1500 rpm for five minutes. […] Then, five microliters of thioflavin T were added to each sample, and after five minutes, the samples were centrifuged at 1500 rpm for five minutes and washed twice with PBS. Aggregates in the micro centrifuge tubes were aspirated and observed under an epifluorescent microscope with B2 filter. (Table 3)"}, "[3]": {"settings": "280-310 milliosmoles per liter, pH 6-8, animal preparation; cited from earlier work"}, "neurons": {"system": "neurons", "settings": "cited from earlier work"}, "β-amyloid peptide(1-40)": {"target": "T3, β-amyloid peptide(1-40) (Homo sapiens, UniProt P05067)", "T3 construct": "when incubated with β-amyloid peptide(1-40); (Park, Kim, Son, & Yang, 2009)", "T3 sequence (P05067 672-711 limits assumed)": "as above", "settings": "cited from earlier work"}, "[4]": {"settings": "cited from earlier work"}}}
{"smiles": "[Ca+2].[Cl-].[Cl-]", "note": "[calcium chloride]", "values": [{"measurement": "Precipitate formation", "setting": "alpha synuclein", "value": "No precipitate formed"}]}
{"smiles": "O=C([O-])CC(O)(CC(=O)[O-])C(=O)[O-].[Na+].[Na+].[Na+]", "note": "[Sodium citrate, sodium citrate]", "values": [{"measurement": "Presence of fluorescent fibrils", "setting": "[1]; sodium citrate 0.01 mM", "value": "Present"}, {"measurement": "Presence of fluorescent fibrils", "setting": "[1]; sodium citrate 0.1 mM", "value": "Present"}, {"measurement": "Presence of fluorescent fibrils", "setting": "[1]; sodium citrate 10 mM", "value": "Absent"}, {"measurement": "Presence of fluorescent fibrils", "setting": "[1]; sodium citrate 100 mM", "value": "Absent"}, {"measurement": "Presence of fluorescent fibrils", "setting": "[1]; sodium citrate 1M", "value": "Present"}, {"measurement": "Thioflavin T fluorescence", "setting": "[2]; sodium citrate 0.01 mM in PBS", "value": "Present"}, {"measurement": "Thioflavin T fluorescence", "setting": "[2]; sodium citrate 0.10 mM in PBS", "value": "Present"}, {"measurement": "Thioflavin T fluorescence", "setting": "[2]; sodium citrate 1.00 mM in PBS", "value": "Minimally present"}, {"measurement": "Thioflavin T fluorescence", "setting": "[2]; sodium citrate 10.00 mM in PBS", "value": "Absent"}, {"measurement": "Effect on vertebral bone weight", "setting": "[3]", "value": "decreased vertebral bone weight"}, {"measurement": "Effect on weight of ligamentum flavum, dura mater, and spinal cord", "setting": "[3]", "value": "minimal effect"}]}
{"smiles": "O=C(O)CC(O)(CC(=O)O)C(=O)O", "note": "[Citrate]", "values": [{"measurement": "Protection of neurons from apoptotic effects of β-amyloid peptide(1-40)", "setting": "neurons", "value": "protect neurons from the apoptotic effects"}, {"measurement": "Formation of amyloid-like aggregates", "setting": "β-amyloid peptide(1-40)", "value": "inhibit formation of amyloid-like aggregates"}, {"measurement": "Blood brain barrier crossing", "setting": "[4]; in vivo", "value": "freely crosses the blood brain barrier"}, {"measurement": "Cerebral spinal fluid to plasma concentration of citrate", "setting": "[4]; in vivo", "value": "approximately two-three to one"}, {"measurement": "Average CSF concentration", "setting": "[4]; normal volunteers", "value": 0.18, "unit": "mM"}, {"measurement": "Average plasma citrate concentration", "setting": "[4]; normal volunteers", "value": 0.09, "unit": "mM"}, {"measurement": "CSF citrate concentration", "setting": "[4]; patients with cerebrovascular disorders", "value": "≤ 0.3", "unit": "mM"}]}
